ChEMBL document CHEMBL3091361, “Synthesis, structure elucidation and in vitro anticancer activities of novel derivatives of diethyl (2E)-2-[(2E)-(1-arylimidazolidin-2-ylidene)hydrazono]succinate and ethyl (4-oxo-8-aryl-4,6,7,8-tetrahydroimidazo[2,1-c][1,2,4]triazin-3-yl)acetate” (Bioorg Med Chem, 2013)

Legend:
[1] = Toxicity in ip dosed albino-Swiss mouse; type: organism-based; settings: in vivo
[2] = Selectivity ratio for human RPMI8226 cells over human HSF cells; type: ADME, cell-based, RPMI-8226; settings: RPMI8226 cells versus HSF cells
[3] = Cytotoxicity against human MM1S cells at 50 ug/ml after 24 hrs by BrdU incorporation assay relative to control; type: functional; settings: MM1.S, read-out: GI
[4] = tested on: HeLa; assay: Cytotoxicity against human HeLa cells at 50 ug/ml after 72 hrs by BrdU incorporation assay relative to control; type: functional; settings: read-out: GI
[5] = tested on: HeLa; assay: Cytotoxicity against human HeLa cells at 50 ug/ml after 24 hrs by BrdU incorporation assay relative to control; type: functional; settings: read-out: GI
[6] = Cytotoxicity against human HSF cells at 50 ug/ml after 72 hrs by BrdU incorporation assay relative to control; type: cell-based; settings: read-out: GI
[7] = Cytotoxicity against human HSF cells at 50 ug/ml after 48 hrs by BrdU incorporation assay relative to control; type: cell-based; settings: read-out: GI
[8] = Cytotoxicity against human MM1R cells at 50 ug/ml after 24 hrs by BrdU incorporation assay relative to control; type: functional; settings: MM.1R, read-out: GI
[9] = tested on: HeLa; assay: Cytotoxicity against human HeLa cells at 50 ug/ml after 48 hrs by BrdU incorporation assay relative to control; type: functional; settings: read-out: GI
[10] = tested on: T47D; assay: Cytotoxicity against human T47D cells at 50 ug/ml after 72 hrs by BrdU incorporation assay relative to control; type: functional; settings: read-out: GI
[11] = Cytotoxicity against human MM1R cells at 50 ug/ml after 48 hrs by BrdU incorporation assay relative to control; type: functional; settings: MM.1R, read-out: GI
[12] = Cytotoxicity against human MM1R cells at 50 ug/ml after 72 hrs by BrdU incorporation assay relative to control; type: functional; settings: MM.1R, read-out: GI
[13] = tested on: T47D; assay: Cytotoxicity against human T47D cells at 50 ug/ml after 24 hrs by BrdU incorporation assay relative to control; type: functional; settings: read-out: GI
[14] = Cytotoxicity against human HSF cells at 50 ug/ml by BrdU incorporation assay; type: cell-based; settings: TDE = time-dependent effect
[15] = Cytotoxicity against human MM1S cells at 50 ug/ml after 48 hrs by BrdU incorporation assay relative to control; type: functional; settings: MM1.S, read-out: GI
[16] = tested on: T47D; assay: Cytotoxicity against human T47D cells at 50 ug/ml after 48 hrs by BrdU incorporation assay relative to control; type: functional; settings: read-out: GI
[17] = Cytotoxicity against human HSF cells at 50 ug/ml after 24 hrs by BrdU incorporation assay relative to control; type: cell-based; settings: read-out: GI
[18] = Cytotoxicity against human MM1S cells at 50 ug/ml after 72 hrs by BrdU incorporation assay relative to control; type: functional; settings: MM1.S, read-out: GI
[19] = Selectivity ratio for human HeLa cells over human HSF cells after 48 hrs; type: ADME, cell-based; settings: HeLa cells versus HSF cells
[20] = Selectivity ratio for human HeLa cells over human HSF cells after 72 hrs; type: ADME, cell-based; settings: HeLa cells versus HSF cells
[21] = Selectivity ratio for human HeLa cells over human HSF cells after 24 hrs; type: ADME, cell-based; settings: HeLa cells versus HSF cells
[22] = tested on: T47D; assay: Induction of necrosis in human T47D cells at 50 ug/ml after 24 hrs by propidium iodide/Hoechst 33342 staining-based confocal microscopy (reference value: 5%); type: functional
[23] = Induction of necrosis in human HSF cells at 50 ug/ml after 24 hrs by propidium iodide/Hoechst 33342 staining-based confocal microscopy (reference value: 2%); type: cell-based
[24] = Induction of necrosis in human HSF cells at 50 ug/ml after 72 hrs by propidium iodide/Hoechst 33342 staining-based confocal microscopy (reference value: 5%); type: cell-based
[25] = tested on: HeLa; assay: Induction of necrosis in human HeLa cells at 50 ug/ml after 48 hrs by propidium iodide/Hoechst 33342 staining-based confocal microscopy (reference value: 10%); type: functional
[26] = tested on: T47D; assay: Induction of apoptosis in human T47D cells at 50 ug/ml after 48 hrs by propidium iodide/Hoechst 33342 staining-based confocal microscopy (reference value: 2%); type: functional
[27] = tested on: T47D; assay: Induction of necrosis in human T47D cells at 50 ug/ml after 72 hrs by propidium iodide/Hoechst 33342 staining-based confocal microscopy (reference value: 10%); type: functional
[28] = tested on: HeLa; assay: Induction of necrosis in human HeLa cells at 50 ug/ml after 24 hrs by propidium iodide/Hoechst 33342 staining-based confocal microscopy (reference value: 5%); type: functional
[29] = Induction of apoptosis in human HSF cells at 50 ug/ml after 24 hrs by propidium iodide/Hoechst 33342 staining-based confocal microscopy (reference value: 2%); type: cell-based
[30] = tested on: HeLa; assay: Induction of apoptosis in human HeLa cells at 50 ug/ml after 48 hrs by propidium iodide/Hoechst 33342 staining-based confocal microscopy (reference value: 5%); type: functional
[31] = tested on: T47D; assay: Induction of necrosis in human T47D cells at 50 ug/ml after 48 hrs by propidium iodide/Hoechst 33342 staining-based confocal microscopy (reference value: 8%); type: functional
[32] = tested on: T47D; assay: Induction of apoptosis in human T47D cells at 50 ug/ml after 24 hrs by propidium iodide/Hoechst 33342 staining-based confocal microscopy (reference value: 2%); type: functional
[33] = Induction of apoptosis in human HSF cells at 50 ug/ml after 72 hrs by propidium iodide/Hoechst 33342 staining-based confocal microscopy (reference value: 5%); type: cell-based
[34] = tested on: HeLa; assay: Induction of necrosis in human HeLa cells at 50 ug/ml after 72 hrs by propidium iodide/Hoechst 33342 staining-based confocal microscopy (reference value: 10%); type: functional
[35] = Induction of apoptosis in human HSF cells at 50 ug/ml after 48 hrs by propidium iodide/Hoechst 33342 staining-based confocal microscopy (reference value: 5%); type: cell-based
[36] = tested on: HeLa; assay: Induction of apoptosis in human HeLa cells at 50 ug/ml after 24 hrs by propidium iodide/Hoechst 33342 staining-based confocal microscopy (reference value: 2%); type: functional
[37] = Induction of necrosis in human HSF cells at 50 ug/ml after 48 hrs by propidium iodide/Hoechst 33342 staining-based confocal microscopy (reference value: 4%); type: cell-based
[38] = tested on: T47D; assay: Induction of apoptosis in human T47D cells at 50 ug/ml after 72 hrs by propidium iodide/Hoechst 33342 staining-based confocal microscopy (reference value: 5%); type: functional
[39] = tested on: HeLa; assay: Induction of apoptosis in human HeLa cells at 50 ug/ml after 72 hrs by propidium iodide/Hoechst 33342 staining-based confocal microscopy (reference value: 5%); type: functional
[40] = Selectivity ratio for human T47D cells over human HSF cells after 72 hrs; type: ADME, cell-based; settings: T47D cells versus HSF cells

| SMILES | inhibition of growth at 50 µg/mL [3] [%] | inhibition of growth at 50 µg/mL [4] [%] | inhibition of growth at 50 µg/mL [5] [%] | inhibition at 72 h, 50 ug/ml [6] [%] | inhibition at 48 h, 50 ug/ml [7] [%] | inhibition of growth at 50 µg/mL [8] [%] | inhibition of growth at 50 µg/mL [9] [%] | inhibition of growth at 50 µg/mL [10] [%] | inhibition of growth at 50 µg/mL [11] [%] | inhibition of growth at 50 µg/mL [12] [%] | inhibition of growth at 50 µg/mL [13] [%] | inhibition of growth at 50 µg/mL [15] [%] | inhibition of growth at 50 µg/mL [16] [%] | inhibition at 24 h, 50 ug/ml [17] [%] | inhibition of growth at 50 µg/mL [18] [%] | selectivity ratio at 72 h [20] | other results |
| --- | --- | --- | --- | --- | --- | --- | --- | --- | --- | --- | --- | --- | --- | --- | --- | --- | --- |
| COc1ccc(N2CCn3c2nnc(-c2ccccc2)c3=O)cc1 | – | – | – | – | – | – | – | – | – | – | – | – | – | – | – | – | LD50 [1]: > 2000 mg/kg; selectivity ratio [2]: 1.7 |
| CCOC(=O)Cc1nnc2n(c1=O)CCN2c1ccc(Cl)cc1 | 45 | 40 | 20 | 80 | 75 | 80 | 30 | 50 | 85 | 90 | 50 | 75 | 50 | 50 | 90 | – | Activity [14]: tde |
| O=c1c(-c2ccco2)nnc2n1CCN2c1c(Cl)cccc1Cl | – | – | – | – | – | – | – | – | – | – | – | – | – | – | – | > 6 | selectivity ratio at 48 h [19]: > 5; selectivity ratio at 24 h [21]: 8 |
| CCOC(=O)Cc1nnc2n(c1=O)CCN2c1cccc(Cl)c1 | 55 | 50 | 10 | 10 | 10 | 80 | 50 | 55 | 85 | 90 | 55 | 60 | 55 | 10 | 80 | – | Activity [22]: 25%; Activity [23]: 10%; Activity [24]: 10%; Activity [25]: 50%; Activity [26]: 20%; Activity [27]: 55%; Activity [28]: 10%; Activity [29]: 5%; Activity [30]: 15%; Activity [31]: 50%; Activity [32]: 10%; Activity [33]: 10%; Activity [34]: 50%; Activity [35]: 5%; Activity [36]: 10%; Activity [37]: 10%; Activity [38]: 20%; Activity [39]: 15% |
| COc1ccccc1N1CCn2c1nnc(-c1ccco1)c2=O | – | – | – | – | – | – | – | – | – | – | – | – | – | – | – | 16 | selectivity ratio at 72 h [40]: 14 |
| O=c1c(-c2ccccc2)nnc2n1CCN2c1ccc(Cl)cc1 | – | – | – | – | – | – | – | – | – | – | – | – | – | – | – | – | LD50 [1]: > 2000 mg/kg |
| O=c1c(-c2ccccc2)nnc2n1CCN2c1cccc(Cl)c1 | – | – | – | – | – | – | – | – | – | – | – | – | – | – | – | – | selectivity ratio [2]: 1.5 |
| CCOC(=O)Cc1nnc2n(c1=O)CCN2c1ccc(Cl)c(Cl)c1 | 40 | 80 | 45 | 70 | 60 | 65 | 45 | 50 | 80 | 90 | 25 | 65 | 40 | 50 | 80 | – | Activity [22]: 25%; Activity [23]: 50%; Activity [24]: 70%; Activity [25]: 45%; Activity [26]: 10%; Activity [27]: 50%; Activity [28]: 45%; Activity [29]: 10%; Activity [30]: 10%; Activity [31]: 45%; Activity [32]: 15%; Activity [33]: 12%; Activity [34]: 80%; Activity [35]: 10%; Activity [36]: 10%; Activity [37]: 60%; Activity [38]: 20%; Activity [39]: 15% |
| O=c1c(-c2ccco2)nnc2n1CCN2c1ccccc1Cl | – | – | – | – | – | – | – | – | – | – | – | – | – | – | – | 5 | selectivity ratio at 48 h [19]: 4; selectivity ratio at 24 h [21]: 8 |
